Measured values from patent US20250011318A1 (ARCUS BIOSCIENCES, INC., priority 2023, published 2025).

What was measured:
Cbl-b = molecular target: T1, Cbl-b (Homo sapiens, UniProt Q13191); assay: Cbl-b probe displacement HTRF binding assay; details: 0.4 nM biotinylated Cbl-b, 150 nM BODIPY probe
T1 construct: biotin (biotinylated)
How it was run: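 Probe-displacement HTRF in Hepes/NaCl/Triton/TCEP/BSA buffer at room temperature: compound dilutions (to 10 μM) incubated 60 min with 0.4 nM biotin-Cbl-b, 150 nM BODIPY probe added for 15 min, Tb-streptavidin read. Signal normalised to DMSO and no-protein controls; IC50 from four-parameter curve.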

Jurkat cells = assay: IL-2 secretion assay in CD3/CD28-activated Jurkat cells (AlphaLISA); type: cell-based, human; details: Homo sapiens, CD3/CD28 T Cell Activator, 24 h, IL-2 AlphaLISA
How it was run: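 IL-2 release quantified by AlphaLISA in supernatants after 24 h CD3/CD28 activation at 37° C. Compounds, 10 μM to 300 pM final in 1:2 steps, were added to 50,000 Jurkat cells/well 1 h before activation; 4-parameter fit gave EC50.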

T1 sequence (Q13191 whole entry, species assumed): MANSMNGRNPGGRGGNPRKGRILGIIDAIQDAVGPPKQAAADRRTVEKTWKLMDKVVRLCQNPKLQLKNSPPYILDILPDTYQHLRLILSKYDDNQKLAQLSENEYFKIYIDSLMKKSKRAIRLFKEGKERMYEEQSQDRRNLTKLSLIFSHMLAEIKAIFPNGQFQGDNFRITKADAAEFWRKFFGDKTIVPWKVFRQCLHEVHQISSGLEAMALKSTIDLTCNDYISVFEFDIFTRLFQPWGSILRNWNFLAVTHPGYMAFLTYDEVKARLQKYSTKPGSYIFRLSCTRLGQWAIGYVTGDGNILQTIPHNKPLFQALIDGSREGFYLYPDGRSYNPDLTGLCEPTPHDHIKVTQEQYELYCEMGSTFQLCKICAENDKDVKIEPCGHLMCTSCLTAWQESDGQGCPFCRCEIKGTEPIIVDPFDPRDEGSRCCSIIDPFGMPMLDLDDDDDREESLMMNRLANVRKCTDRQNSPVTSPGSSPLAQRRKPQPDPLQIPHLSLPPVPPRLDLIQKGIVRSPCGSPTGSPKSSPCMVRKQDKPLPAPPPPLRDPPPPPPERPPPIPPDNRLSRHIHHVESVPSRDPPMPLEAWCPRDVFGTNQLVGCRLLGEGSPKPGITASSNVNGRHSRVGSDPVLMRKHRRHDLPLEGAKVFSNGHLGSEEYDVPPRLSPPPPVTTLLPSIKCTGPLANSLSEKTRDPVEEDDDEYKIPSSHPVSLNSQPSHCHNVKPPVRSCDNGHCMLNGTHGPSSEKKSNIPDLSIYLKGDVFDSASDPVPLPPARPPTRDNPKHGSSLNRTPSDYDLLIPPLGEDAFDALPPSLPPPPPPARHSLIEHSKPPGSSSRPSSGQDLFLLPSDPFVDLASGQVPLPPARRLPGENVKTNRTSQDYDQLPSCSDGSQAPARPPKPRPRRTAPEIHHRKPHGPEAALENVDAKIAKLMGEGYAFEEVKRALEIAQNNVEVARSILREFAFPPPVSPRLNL

Compound | IC50 (Cbl-b) | EC50 (Jurkat cells)
Cc1ccnn1-c1cc(F)ccc1-c1cc(C2CC2)nc(-n2cc(C3CC3)c3cc(CNC4(C)CCC4)[nH]c3c2=O)c1 [Example 140, 4-cyclopropyl-6-[6-cyclopropyl-4-[4-fluoro-2-(5-methylpyrazol-1-yl)phenyl]pyridin-2-yl]-2-[[(1-methylcyclobutyl)amino]methyl]-1H-pyrrolo[2,3-c]pyridin-7-one] | < 100 nM | 100 to 1000 nM
Cn1cnnc1-c1cc(F)ccc1-c1cc(C2CC2)nc(-n2cc(C(F)(F)F)c3cc[nH]c3c2=O)c1 [Example 141, 6-[6-cyclopropyl-4-[4-fluoro-2-(4-methyl-1,2,4-triazol-3-yl)phenyl]pyridin-2-yl]-4-(trifluoromethyl)-1H-pyrrolo[2,3-c]pyridin-7-one] | < 100 nM | < 100 nM
COCCNCc1cc2c(C(F)(F)F)cn(-c3cc(-c4ccc(F)cc4-n4nccc4C(F)(F)F)cc(C4CC4)n3)c(=O)c2[nH]1 [Example 142, 6-[6-cyclopropyl-4-[4-fluoro-2-[5-(trifluoromethyl)pyrazol-1-yl]phenyl]pyridin-2-yl]-2-[(2-methoxyethylamino)methyl]-4-(trifluoromethyl)-1H-pyrrolo[2,3-c]pyridin-7-one] | < 100 nM | 100 to 1000 nM
Cc1cncnc1-c1cc(F)ccc1-c1cc(C2CC2)nc(N2Cc3ccc(CN4CCC[C@H](C)C4)cc3C2=O)c1 [Example 143, 2-[6-Cyclopropyl-4-[4-fluoro-2-(5-methylpyrimidin-4-yl)phenyl]pyridin-2-yl]-6-[[(3S)-3-methylpiperidin-1-yl]methyl]-3H-isoindol-1-one] | < 100 nM | 1000 to 5000 nM
Cn1cnnc1-c1cc(F)ccc1-c1cc(C2CC2)nc(-n2cc(C#N)c3c4c([nH]c3c2=O)CCCC4)c1 [Example 144, 2-{6-Cyclopropyl-4-[4-fluoro-2-(4-methyl-4H-1,2,4-triazol-3-yl)phenyl]-2-pyridyl}-1-oxo-2,5,6,7,8,9-hexahydroβ-carboline-4-carbonitrile] | < 100 nM | < 100 nM
